Measurements taken from US20200255828A1, “METHODS AND COMPOSITIONS FOR ALTERING FUNCTION AND STRUCTURE OF CHROMATIN LOOPS AND/OR DOMAINS” (THE BROAD INSTITUTE, INC., priority 2017, published 2020).

How the values were obtained:
[1] = system: CTCF; assay: ChIP-Seq for CTCF with and without auxin; assay type: cell-based, human
Protocol: ChIP-Seq for H3K27Ac, H3K4me1, H3K4me3, H3K36me3, H3K27me3, H3K9me3, H4K16Ac, H4K20me3, H3K79me2, and H2.AZ was performed using a native ChIP-Seq protocol. Chromatin from untreated HCT-116 RAD21-mAC cells or cells treated for 6 hours with 500 uM IAA was digested with Mnase (Sigma) in digestion buffer (50 mM Tris-HCl, pH7.6, 1 mM CaCl2), 0.2% Triton X-100, butyrate 5 mM) for 5′ at 37° C. and dialyzed against RIPA buffer for 2 hrs at 4° C. Five microgram of respective antibody was incubated with 40 μl of Dynabeads Protein A (or G) for 40 min at room temperature. Antibody-bound beads were added to 500 μl of sonicated or Mnase-digested chromatin, incubated at 4° C. overnight, and washed twice with RIPA buffer, twice with RIPA buffer containing 0.3 M NaCl, twice with LiCl buffer (0.25 M LiCl, 0.5% Igepal-630, 0.5% sodium deoxycholate), once with TE (pH 8.0) plus 0.2% Triton X-100, and once with TE (pH 8.0). ChIP DNA was purified by phenol-chloroform extraction followed by ethanol precipitation. Libraries were prepped for Illumina sequencing and 50 bp single-end reads were sequenced on a HiSeq2000 or 2500 (Illumina). Applicants also performed ChIP-Seq for RAD21 and CTCF following the same protocol as above, except that cells were fixed with 1% formaldehyde for 10 minutes at 37° C. and fixation was quenched by the addition of glycine to a final concentration of 125 mM for 10 minutes. The fixed cells were sonicated using a Branson sonifier at amplitude 35%, 12 cycles of 20 seconds of sonication and 30 seconds of pause. Antibody was added to the sonicated chromatin as above and the samples were further processed as above. […]
All ChIP-Seq data was aligned to hg19 with BWA (Li and Durbin, 2010) (Li and Durbin, 2010) (Li and Durbin, 2010), deduplicated using PicardTools, and analyzed with MACS 2.0 (Liu, 2014). […]
Applicants calculated average signal over 5 kb bins across the entire genome and correlated signal between ChIP-Seq experiments before and after auxin treatment for each of CTCF, H3K27me3, H3K9me3, H3K4me1, H3K4me3 and H3K27Ac.

[2] = system: HCT-116 RAD21-mAC cells; assay: In situ Hi-C: APA for cohesin-independent links between superenhancers; assay type: cell-based, human
From the text: Applicants first annotated loops in our maps for auxin-treated RAD21-mAC cells using default HiCCUPS parameters for 5, 10, and 25 kb resolutions (Durand et al., 2016b; Rao et al., 2014) with the additional requirement that the peak pixel show […] 4.5-fold enrichment over local expected (in order to remove as many false positives as possible due to rearrangements and assembly issues, see above). Using this procedure, Applicants annotated 81 loops in treated RAD21-mAC cells. […] The false discovery rate for HiCCUPS is much higher in treated cells because the number of true positives is dramatically lower. […] Applicants also noticed that the anchors involved in these 15 loops were often forming long-range loops at distances of tens of megabases and hundreds of megabases. Applicants reasoned that HiCCUPS using default parameters for loop detection was missing many of these extremely long-range loops because of the extra stringency of the HiCCUPS lambda chunking procedure for multiple hypothesis testing for pixels with low counts (i.e. pixels far off the diagonal).
More specifically, Applicants annotated loops by running HiCCUPS at 50 and 100 kb resolutions with the following parameters: p=2,1; w=4,2; fdr=10%, 10%. Applicants additionally filtered loops that were within 5 Mb of the diagonal, had less than a 2-fold observed/expected for any of the local expected, and had fewer than 3 pixels clustered into the peak pixels (see section VI.a.5 of Rao et al., 2014). This annotation yielded 88 loops. […] Combining these 46 loops with the 15 loops annotated with high resolution HiCCUPS, Applicants obtained a final curated list of 61 intrachromosomal cohesin-independent loops.
To annotate these interchromosomal links between pairs of cohesin-independent loop anchors, Applicants used HiCCUPS to calculate local enrichments at 100 kb resolution for all possible interchromosomal pairs of cohesin-independent loop anchors. Applicants then identified enriched focal interchromosomal interactions by filtering for links that were enriched at least 5.5-fold over local background (empirically chosen to ensure a <10% false discovery rate). Using this procedure, Applicants identified 203 interchromosomal cohesin-independent links. This likely underestimates the true number of interchromosomal cohesin-independent links, as evidenced by FIG. SA.
Applicants analyzed the change in strength of cohesin-independent links after auxin treatment by using APA at 100 kb resolution.
Applicants also analyzed induction of cohesin-independent links across an auxin treatment and withdrawal time course. This analysis was performed as above with the cohesin-associated loops and loop domains, but at 100 kb resolution instead of 10 kb resolution and for both our 61 intrachromosomal links and our 203 interchromosomal links. […] Similar results were seen upon performing the time course APA at 100 kb resolution using all intrachromosomal pairs of the 47 superenhancer overlapping anchors in the 88-loop automated list from above (FIG. 11E).

## O=C(O)Cc1c[nH]c2ccccc12 [auxin, indole-3-acetic acid]
[1]
  CTCF peaks called after auxin treatment also called before auxin treatment: 96%
[1]; 5 kb bins genome-wide
  Spearman's r of ChIP-Seq signal before vs after auxin treatment, CTCF: 0.80
[1]; untreated 10.89
  average enrichment at all CTCF binding sites called by ENCODE, treated cells: 8.93
[2]; APA at 100 kb resolution, intra and interchromosomal
  strengthening of cohesin-independent links after auxin treatment: ~2 fold
[2]; automatedly generated list, untreated 1.69
  intrachromosomal APA score of cohesin-independent links, treated: 2.75
[2]; automatedly generated list, untreated 2.29
  interchromosomal APA score of cohesin-independent links, treated: 3.64
[2]; manually curated list of 61 links, untreated 2.32
  intrachromosomal APA score of cohesin-independent links, treated: 4.02
[2]; manually curated list of 203 links, untreated 3.02
  interchromosomal APA score of cohesin-independent links, treated: 7.02
